From ChEMBL document CHEMBL1201862, “PubChem BioAssay data set” (2004)
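Dose response: 5 concentrations. Exposure: 48 h. Format: 96-well plates. Endpoint: linear interpolation; highest concentration if not reached. Abbreviation: GI50, concentration required for 50% inhibition of growth.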 The source made the active and inactive calls. Cut-off read from the data, not from the text of the source: active = GI50 up to about 1.1 µM and inactive = higher.

Tests used:
Assay in all cases: NCI tumour cell line growth inhibition, 48 h
786-0 = test system: 786-0
BT-549 = test system: BT-549
COLO 205 = test system: COLO 205
HCC 2998 = test system: HCC 2998
HT-29 = test system: HT-29
IGROV-1 = test system: IGROV-1
KM12 = test system: KM12
M14 = test system: M14
MCF7 = test system: MCF7
MDA-MB-231 = test system: MDA-MB-231
Malme-3M = test system: Malme-3M
NCI-H460 = test system: NCI-H460
RXF 393 = test system: RXF 393
SF-295 = test system: SF-295
SK-MEL-2 = test system: SK-MEL-2
SNB-19 = test system: SNB-19
SNB-75 = test system: SNB-75
TK-10 = test system: TK-10
HL-60 = test system: HL-60
K562 = test system: K562

Measured: GI50

Cn1c(N)c(/C=N/NC(=O)CC#N)c(=O)n(C)c1=O
inactive: 786-0 > 100 µM | BT-549 > 100 µM | COLO 205 > 100 µM | HCC 2998 > 100 µM | HT-29 > 100 µM | IGROV-1 > 100 µM | KM12 > 100 µM | M14 > 100 µM | MCF7 > 100 µM | MDA-MB-231 > 100 µM | Malme-3M 59.8 µM | NCI-H460 > 100 µM | RXF 393 > 100 µM | SF-295 > 100 µM | SK-MEL-2 > 100 µM | SNB-19 > 100 µM | SNB-75 > 100 µM | TK-10 > 100 µM

O=C(O)c1nc2cc(C(F)(F)F)ccc2[nH]c1=O
inactive: 786-0 > 100 µM | BT-549 > 100 µM | COLO 205 > 100 µM | HCC 2998 > 100 µM | HL-60 > 100 µM | HT-29 > 100 µM | IGROV-1 > 100 µM | K562 > 100 µM | KM12 > 100 µM | M14 > 100 µM | MCF7 > 100 µM | MDA-MB-231 > 100 µM | Malme-3M > 100 µM | NCI-H460 > 100 µM | SF-295 > 100 µM | SK-MEL-2 > 100 µM | SNB-19 > 100 µM | TK-10 > 100 µM

Cc1ccc(-c2c(C#N)c(-c3ccccc3)c(C#N)c(=O)n2NS(=O)(=O)c2ccc(C)cc2)cc1
inactive: 786-0 44.6 µM | BT-549 70.1 µM | COLO 205 95.9 µM | HCC 2998 19.9 µM | HT-29 50.6 µM | IGROV-1 48.1 µM | K562 40.3 µM | KM12 38.5 µM | M14 31 µM | MCF7 35.4 µM | MDA-MB-231 > 100 µM | Malme-3M > 100 µM | NCI-H460 15.7 µM | RXF 393 62.2 µM | SF-295 24 µM | SK-MEL-2 35.7 µM | SNB-19 5.56 µM | SNB-75 > 100 µM | TK-10 40.7 µM

Cc1ccc(C)n1-n1c(-c2ccccc2)n[nH]c1=O
inactive: 786-0 > 100 µM | BT-549 > 100 µM | COLO 205 > 100 µM | HCC 2998 87.7 µM | HT-29 > 100 µM | IGROV-1 > 100 µM | K562 53.7 µM | KM12 34.3 µM | M14 > 100 µM | MCF7 > 100 µM | MDA-MB-231 > 100 µM | Malme-3M > 100 µM | NCI-H460 > 100 µM | RXF 393 > 100 µM | SF-295 > 100 µM | SK-MEL-2 > 100 µM | SNB-19 > 100 µM | SNB-75 > 100 µM | TK-10 > 100 µM

O=c1[nH]c(=O)n(C2CC(O)C(CO)O2)c2nc3cc4ccccc4cc3nc12 (stereo not given)
inactive: 786-0 > 100 µM | BT-549 > 100 µM | COLO 205 > 100 µM | HCC 2998 > 100 µM | IGROV-1 98.4 µM | K562 > 100 µM | KM12 > 100 µM | M14 > 100 µM | MCF7 > 100 µM | MDA-MB-231 52.7 µM | Malme-3M > 100 µM | NCI-H460 > 100 µM | RXF 393 26.5 µM | SF-295 75.2 µM | SK-MEL-2 > 100 µM | SNB-19 14.5 µM | SNB-75 74.8 µM | TK-10 > 100 µM

CCCCC1C=Cn2c(=O)oc3c(OC(C)C)c(OC(C)C)c(O)c1c32 (stereo not given)
inactive: 786-0 20 µM | BT-549 14.3 µM | COLO 205 16.3 µM | HL-60 4.56 µM | HT-29 14.6 µM | KM12 14.4 µM | M14 22.3 µM | MCF7 12.2 µM | MDA-MB-231 14.1 µM | NCI-H460 15.4 µM | SF-295 18.5 µM | SK-MEL-2 15.3 µM | SNB-19 18.2 µM | SNB-75 13 µM | TK-10 16.3 µM

O=C(OCC1CCCN2CCCCC12)c1ccncc1 (stereo not given)
inactive: 786-0 > 100 µM | BT-549 > 100 µM | COLO 205 > 100 µM | HCC 2998 > 100 µM | HT-29 > 100 µM | IGROV-1 > 100 µM | K562 > 100 µM | KM12 > 100 µM | M14 > 100 µM | MCF7 > 100 µM | MDA-MB-231 > 100 µM | Malme-3M > 100 µM | NCI-H460 > 100 µM | RXF 393 > 100 µM | SF-295 > 100 µM | SK-MEL-2 > 100 µM | SNB-19 > 100 µM | SNB-75 > 100 µM | TK-10 > 100 µM

COC(=O)CNC(=O)c1cc(C)cc2c1Oc1c(cc(C)cc1C(=O)NCC(=O)OC)S2
inactive: 786-0 39.4 µM | BT-549 > 100 µM | COLO 205 28.4 µM | HCC 2998 38.5 µM | HT-29 47.1 µM | IGROV-1 > 100 µM | K562 > 100 µM | KM12 81.7 µM | M14 42.6 µM | MCF7 98.9 µM | MDA-MB-231 > 100 µM | Malme-3M 17.9 µM | RXF 393 29.6 µM | SF-295 56.9 µM | SK-MEL-2 > 100 µM | SNB-19 > 100 µM | SNB-75 > 100 µM | TK-10 > 100 µM

CSc1nc2c(c(N(C)C)n1)C(O)n1c(nc3ccccc31)S2 (stereo not given)
inactive: 786-0 26.8 µM | BT-549 67 µM | COLO 205 > 100 µM | HCC 2998 > 100 µM | HT-29 > 100 µM | IGROV-1 30.2 µM | K562 > 100 µM | KM12 > 100 µM | M14 > 65.3 µM | MCF7 47 µM | MDA-MB-231 28 µM | Malme-3M 28.6 µM | NCI-H460 73.5 µM | RXF 393 21.3 µM | SF-295 38.1 µM | SK-MEL-2 > 100 µM | SNB-19 25.4 µM | SNB-75 17.1 µM | TK-10 > 53.2 µM

COC(=O)CC1c2ccccc2N2C(=O)Cc3c([nH]c4ccccc34)C12 (stereo not given)
inactive: 786-0 58.6 µM | BT-549 > 100 µM | COLO 205 > 100 µM | HCC 2998 > 100 µM | HT-29 > 100 µM | IGROV-1 > 100 µM | K562 35.8 µM | KM12 > 100 µM | M14 > 100 µM | MCF7 34.8 µM | MDA-MB-231 > 100 µM | Malme-3M 66.5 µM | NCI-H460 > 100 µM | RXF 393 > 100 µM | SF-295 7.93 µM | SK-MEL-2 > 100 µM | SNB-19 > 100 µM | SNB-75 > 100 µM | TK-10 > 100 µM

C[n+]1c(-c2ccc(/C=N/Nc3ccnc(N/N=C/c4ccc(-c5cn6ccsc6[n+]5C)cc4)n3)cc2)cn2ccsc21
inactive: 786-0 15.8 µM | BT-549 36.1 µM | COLO 205 35.4 µM | HCC 2998 31.6 µM | HT-29 16.9 µM | IGROV-1 19.1 µM | K562 12.1 µM | KM12 22.1 µM | M14 8.81 µM | MCF7 48.4 µM | MDA-MB-231 32.7 µM | Malme-3M 29.9 µM | NCI-H460 16.9 µM | RXF 393 21.5 µM | SK-MEL-2 29.8 µM | SNB-19 32.8 µM | SNB-75 20 µM | TK-10 25.8 µM
